Reference: patent publication US9718803B2 (AMGEN INC., priority 2010, dated 2017)
Where two headings read alike, the source gives them in different places.

Target: PDE10 enzyme
Assay: MPDE10A7 enzyme activity and inhibition (IMAP TR-FRET assay)
Assay type: biochemical
Description: MPDE10A7 Enzyme Activity and Inhibition
Enzyme Activity. An IMAP TR-FRET assay was used to analyze the enzyme activity (Molecular Devices Corp., Sunnyvale Calif.). 5 L of serial diluted PDE10A (BPS Bioscience, San Diego, Calif.) or tissue homogenate was incubated with equal volumes of diluted fluorescein labeled cAMP or cGMP for 60 min in 384-well polystyrene assay plates (Corning, Corning, N.Y.) at room temperature. After incubation, the reaction was stopped by adding 60 L of diluted binding reagents and was incubated for 3 hours to overnight at room temperature. The plates were read on an Envision (Perkin Elmer, Waltham, Mass.) for time resolved fluorescence resonance energy transfer. The data were analyzed with GraphPad Prism (La Jolla, Calif.).
Enzyme Inhibition. To check the inhibition profile, 5 μL of serial diluted compounds were incubated with 5 μL of diluted PDE10 enzyme (BPS Bioscience, San Diego, Calif.) or tissue homogenate in a 384-well polystyrene assay plate (Corning, Corning, N.Y.) for 30 min at room temperature. […] The reaction was stopped by adding 60 μL of diluted binding reagents and plates were read on an Envision (Perkin Elmer, Waltham, Mass.) for time resolved fluorescence resonance energy transfer. The data were analyzed with GraphPad Prism (La Jolla, Calif.).

SMILES	IC50 (read-out: IC50) [nM]	IC50 (running text of examples, fluorescein labeled cAMP or cGMP substrate, read-out: PDE10 IC50) [nM]
N#Cc1ccc(-c2nccnc2C2CN(c3ccc4ccccc4n3)C2)cc1 [Example 5.8, 4-(3-(1-(quinolin-2-yl)azetidin-3-yl)pyrazin-2-yl)benzonitrile]	3	–
O=C(O)c1cccc(-c2nccnc2C2CN(c3ccc4ccccc4n3)C2)c1 [Example 33.1, Lithium 3-(3-(1-(Quinolin-2-Yl)Azetidin-3-Yl)Pyrazin-2-Yl)Benzoate]	–	1.6
